Test results taken from patent US12403132B2, “Methods of treating bone marrow failure syndromes and compositions for use in the same” (The Board of Trustees of the Leland Stanford Junior …, priority 2020, dated 2025).
Each block holds one compound with its values, some of them ahead of it.

Molecular target: T1, NLK (Homo sapiens, UniProt Q9UBE8)
T1 sequence (Q9UBE8 1-527): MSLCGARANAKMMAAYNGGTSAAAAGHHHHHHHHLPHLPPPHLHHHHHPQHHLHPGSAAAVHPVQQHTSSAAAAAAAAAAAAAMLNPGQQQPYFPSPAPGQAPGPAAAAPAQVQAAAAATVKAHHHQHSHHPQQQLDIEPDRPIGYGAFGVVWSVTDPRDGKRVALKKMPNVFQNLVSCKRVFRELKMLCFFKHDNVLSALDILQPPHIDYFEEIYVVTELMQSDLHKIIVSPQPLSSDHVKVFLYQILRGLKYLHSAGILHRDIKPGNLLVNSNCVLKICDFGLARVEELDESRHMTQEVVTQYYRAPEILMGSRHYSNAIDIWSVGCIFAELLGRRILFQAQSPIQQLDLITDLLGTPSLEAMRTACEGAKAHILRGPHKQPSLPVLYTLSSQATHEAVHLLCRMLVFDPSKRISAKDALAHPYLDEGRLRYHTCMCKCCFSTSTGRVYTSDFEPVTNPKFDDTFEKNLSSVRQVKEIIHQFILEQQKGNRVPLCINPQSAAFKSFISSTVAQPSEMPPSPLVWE
Experiment: NLK in vitro kinase assay, compound added to active NLK immunopurified from Kp53A1 cells
Assay type: biochemical
Parameters: inhibition of NLK kinase activity in vitro: dose or concentration left out as unconfirmed
Conditions: for NLK activity with compound added to activated NLK in in vitro kinase assay: 0, 50 nM, 50 μM or 50 mM, 30 mins
Experimental: FIG. 6. […] (a) Schematic of assay utilized to screen compounds for effects on erythroid progenitor cell expansion. Lin-Kit+fetal liver cells were obtained from mouse embryos expressing tet-on shRNA against RPS19, at day E14.5-15.5. Cells were plated at 2000 cell per well in 96-well plates in the presence or absence of doxycycline. Relative amounts of live cells were quantified by luciferase-based Cell titer-Glo® assay. (b) TGFβR1 inhibitors including SB431542 were assessed for their ability to increase cell expansion in RPS19-insuffiency. As a control, untreated (no doxycycline) is represented at the far left while all other samples were treated with doxycycline to induce RPS19-insufficiency. (c) Kit+ erythroid progenitors were grown in the absence of doxycycline and in the presence of 10 μM of indicated compound. As a comparison, samples with no inhibitor added are represented in grey. In addition, cells were either left untreated, or treated with 5 ng/ml of TGFβ1 for 5 days before being subjected to Cell TiterGlo® assay. (d) Schematic indicating Smad2 and Smad3 serve as substrates for activated TGFβR1 while NLK, c-Myb and raptor serve as substrates for activated NLK (upper panel). K562 cells were stimulated with 5 ng/ml TGFβ1 for 10 min and TGFβR1 was immunopurified after cell lysis and protein normalization. TGFβR1 was added to purified Smad2 (middle panel) and Smad3 (lower panel) in the presence of ATP and Mg^2+ at 37° C. for 30 min. As per NLK kinase assay, phosphorylation of substrates was detected by antibody raised against phosphorylated serine residues. Compounds with inhibitory properties against TGFβR1, other TGFB pathway factors, or NLK expression were added to the kinase reactions at concentrations known to inhibit TGFB signaling.
FIG. 10. […] (Panel A) Control (shLuc—grey columns) or RPS19-insufficient (shRPS19-—black columns) progenitors were differentiated in erythroid media alone, vehicle or vehicle containing 50 mM metformin or 5 uM SD208 for 5 days. 5000 cells per treatment were lysed and immunopurified NLK was subjected to in vitro kinase assay to determine phosphorylation potential against 3 recognized NLK substrates; NLK itself (upper), c-Myb (middle) or raptor (bottom). (Panel B) Simultaneously, qRT-PCR was performed to examine NLK (upper) and RPS19 (lower) mRNA expression. (Panel C) Active NLK was purified from activated Kp53A1 cells and subjected to in vitro kinase assay in the presence of 0, 50 nM, 50 μM, or 50 mM metformin or SD208. The phosphorylation of NLK (upper), c-Myb (middle) and raptor (lower) was determined after 30 mins. (Panel D) CD34+ progenitors were transduced with a combination of either shRNA against luciferase (shLuc—grey columns) or RPS19 (shRPS19—black columns) and siRNA against a non-targeting sequence (NT) or NLK (siNLK). After 14 days differentiation in the presence or absence of metformin, cells were counted and the percentage of cells with surface expression of CD235 and CD11b were determined by flow cytometry, to yield the number of CD235+ erythroid (upper) and CD11b+ myeloid (lower) cells. The total number of cells is expressed as a percentage of the number of each cell type in the control (untreated/shLuc/NT). […] Statistics: two-tailed Student's t test, significant *P<0.05
For NLK kinase analysis, cultures were treated as indicated and lysed for 30 min at 4° C. in 750 μl of kinase lysis buffer (50 mM Tris [pH 7.4], 5 mM EDTA, 250 mM NaCl, 0.1% Triton X-100, 50 mM NaF, 0.1 trypsin inhibitor unit of aprotinin per ml, 50 μg of phenylmethylsulfonyl fluoride per ml, 100 μM sodium vanadate, 1 μg of leupeptin per ml).

[1] = panel assessed at 0.1, 1 and 10 μM, compared with TGFβR1 at 1 μM

Structure (SMILES): CC(C)=CCC[C@](C)(O[C@@H]1O[C@H](CO[C@@H]2O[C@H](CO)[C@@H](O)[C@H](O)[C@H]2O)[C@@H](O)[C@H](O)[C@H]1O)[C@H]1CC[C@]2(C)[C@@H]1[C@H](O)C[C@@H]1[C@@]3(C)CC[C@H](O[C@@H]4O[C@H](CO)[C@@H](O)[C@H](O)[C@H]4O[C@@H]4O[C@H](CO)[C@@H](O)[C@H](O)[C@H]4O)C(C)(C)[C@@H]3CC[C@]12C [ginsenoside Rb1]
inhibition of NLK kinase activity in vitro (substrates Raptor, c-Myb, NLK): failed to inhibit

NLK activity with compound added to activated NLK in in vitro kinase assay: robustly inhibited
inhibition of NLK phosphorylating NLK (5 μM): 84.3%
inhibition of NLK phosphorylating Raptor (5 μM): 89.1%
inhibition of NLK phosphorylating c-Myb (5 μM): 79.7%
inhibition of NLK activity in vitro [1]: approximately 80%
Structure (SMILES): Fc1ccc(Cl)cc1-c1nc(Nc2ccncc2)c2nccnc2n1 [SD208]

inhibition at 1 µM [1]: 40 to 45%
Structure (SMILES): Cc1cccc(-c2nn3c(c2-c2ccnc4ccc(C(N)=O)cc24)CCC3)n1 [Galunisertib]

NLK activity with compound added to activated NLK in in vitro kinase assay: did not influence
Structure (SMILES): CN(C)C(=N)N=C(N)N [metformin]

inhibition at 1 µM [1]: ~55%
Structure (SMILES): NC(=O)c1ccc(-c2nc(-c3ccc4c(c3)OCO4)c(-c3ccccn3)[nH]2)cc1 [SB431542]
